According to publication PMC6407917, “Identification of GSK3186899/DDD853651 as a Preclinical Development Candidate for the Treatment of Visceral Leishmaniasis” (Journal of Medicinal Chemistry, 2018):

Assays:
Assay in all cases: biochemical
Design in all cases: species or system HEK293/K-562/placenta mixed human extract; Kinobeads chemoproteomic competition binding, quantified by TMT LC-MS/MS, dose response up to 20 uM
NEK7 = NEK7 (Homo sapiens, UniProt Q8TDX7)
JAK3 = JAK3 (Homo sapiens, UniProt P52333)
BUB1 = BUB1 (Homo sapiens, UniProt O43683)
BUB1, sequence (O43683 whole entry): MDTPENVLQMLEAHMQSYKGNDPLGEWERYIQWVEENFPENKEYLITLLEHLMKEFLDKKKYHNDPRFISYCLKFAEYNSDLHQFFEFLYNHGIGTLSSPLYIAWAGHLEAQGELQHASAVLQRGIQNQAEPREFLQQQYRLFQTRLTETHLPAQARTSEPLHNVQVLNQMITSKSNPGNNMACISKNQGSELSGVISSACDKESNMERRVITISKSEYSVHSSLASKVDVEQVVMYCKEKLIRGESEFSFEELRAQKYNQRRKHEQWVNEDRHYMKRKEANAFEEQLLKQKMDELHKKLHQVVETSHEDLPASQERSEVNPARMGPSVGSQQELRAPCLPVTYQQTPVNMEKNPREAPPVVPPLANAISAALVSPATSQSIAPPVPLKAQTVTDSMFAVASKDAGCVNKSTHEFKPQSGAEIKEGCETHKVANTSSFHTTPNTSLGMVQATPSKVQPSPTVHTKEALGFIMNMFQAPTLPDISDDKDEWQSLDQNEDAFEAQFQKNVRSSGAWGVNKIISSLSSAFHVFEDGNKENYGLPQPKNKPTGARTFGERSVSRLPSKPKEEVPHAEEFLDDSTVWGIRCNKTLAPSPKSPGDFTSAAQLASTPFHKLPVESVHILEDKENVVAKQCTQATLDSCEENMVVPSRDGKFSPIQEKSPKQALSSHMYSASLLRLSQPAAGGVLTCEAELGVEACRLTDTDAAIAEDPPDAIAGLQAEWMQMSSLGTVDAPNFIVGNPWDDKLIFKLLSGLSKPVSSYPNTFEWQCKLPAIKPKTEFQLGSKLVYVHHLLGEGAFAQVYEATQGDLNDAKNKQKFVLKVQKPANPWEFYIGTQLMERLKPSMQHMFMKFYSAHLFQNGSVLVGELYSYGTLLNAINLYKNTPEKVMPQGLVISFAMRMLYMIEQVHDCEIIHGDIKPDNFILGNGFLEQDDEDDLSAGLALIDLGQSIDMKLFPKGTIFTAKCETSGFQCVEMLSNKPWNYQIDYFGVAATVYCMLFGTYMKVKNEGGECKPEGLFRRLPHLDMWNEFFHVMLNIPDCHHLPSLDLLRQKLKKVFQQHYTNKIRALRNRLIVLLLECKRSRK

TEK = TEK (Homo sapiens, UniProt Q02763)
SNRK = SNRK (Homo sapiens, UniProt Q9NRH2)
SNRK, sequence (Q9NRH2 whole entry): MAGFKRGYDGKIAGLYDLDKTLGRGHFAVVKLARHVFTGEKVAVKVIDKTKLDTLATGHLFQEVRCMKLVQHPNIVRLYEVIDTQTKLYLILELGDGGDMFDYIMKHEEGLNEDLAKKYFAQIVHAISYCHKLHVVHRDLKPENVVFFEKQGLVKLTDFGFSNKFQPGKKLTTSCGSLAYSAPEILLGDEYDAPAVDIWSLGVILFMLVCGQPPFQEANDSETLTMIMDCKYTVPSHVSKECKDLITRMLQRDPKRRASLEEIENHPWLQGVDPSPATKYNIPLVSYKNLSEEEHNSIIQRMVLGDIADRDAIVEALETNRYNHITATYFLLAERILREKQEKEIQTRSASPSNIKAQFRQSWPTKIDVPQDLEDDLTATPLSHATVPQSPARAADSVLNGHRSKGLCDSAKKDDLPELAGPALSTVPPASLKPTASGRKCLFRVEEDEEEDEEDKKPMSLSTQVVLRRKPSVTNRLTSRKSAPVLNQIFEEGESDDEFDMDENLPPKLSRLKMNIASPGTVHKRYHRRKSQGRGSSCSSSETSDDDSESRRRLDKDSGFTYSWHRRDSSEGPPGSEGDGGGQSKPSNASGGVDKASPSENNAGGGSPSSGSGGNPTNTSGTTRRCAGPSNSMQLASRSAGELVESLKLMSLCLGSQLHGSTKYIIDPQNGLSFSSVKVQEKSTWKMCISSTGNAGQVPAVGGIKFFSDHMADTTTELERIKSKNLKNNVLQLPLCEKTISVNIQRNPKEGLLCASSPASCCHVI

PKN2 = PKN2 (Homo sapiens, UniProt Q16513)
FER = FER (Homo sapiens, UniProt P16591)
SLK = SLK (Homo sapiens, UniProt Q9H2G2)
CHEK2 = CHEK2 (Homo sapiens, UniProt O96017)
TBK1 = TBK1 (Homo sapiens, UniProt Q9UHD2)
PKN1 = PKN1 (Homo sapiens, UniProt Q16512)
PKN1, sequence (Q16512 whole entry): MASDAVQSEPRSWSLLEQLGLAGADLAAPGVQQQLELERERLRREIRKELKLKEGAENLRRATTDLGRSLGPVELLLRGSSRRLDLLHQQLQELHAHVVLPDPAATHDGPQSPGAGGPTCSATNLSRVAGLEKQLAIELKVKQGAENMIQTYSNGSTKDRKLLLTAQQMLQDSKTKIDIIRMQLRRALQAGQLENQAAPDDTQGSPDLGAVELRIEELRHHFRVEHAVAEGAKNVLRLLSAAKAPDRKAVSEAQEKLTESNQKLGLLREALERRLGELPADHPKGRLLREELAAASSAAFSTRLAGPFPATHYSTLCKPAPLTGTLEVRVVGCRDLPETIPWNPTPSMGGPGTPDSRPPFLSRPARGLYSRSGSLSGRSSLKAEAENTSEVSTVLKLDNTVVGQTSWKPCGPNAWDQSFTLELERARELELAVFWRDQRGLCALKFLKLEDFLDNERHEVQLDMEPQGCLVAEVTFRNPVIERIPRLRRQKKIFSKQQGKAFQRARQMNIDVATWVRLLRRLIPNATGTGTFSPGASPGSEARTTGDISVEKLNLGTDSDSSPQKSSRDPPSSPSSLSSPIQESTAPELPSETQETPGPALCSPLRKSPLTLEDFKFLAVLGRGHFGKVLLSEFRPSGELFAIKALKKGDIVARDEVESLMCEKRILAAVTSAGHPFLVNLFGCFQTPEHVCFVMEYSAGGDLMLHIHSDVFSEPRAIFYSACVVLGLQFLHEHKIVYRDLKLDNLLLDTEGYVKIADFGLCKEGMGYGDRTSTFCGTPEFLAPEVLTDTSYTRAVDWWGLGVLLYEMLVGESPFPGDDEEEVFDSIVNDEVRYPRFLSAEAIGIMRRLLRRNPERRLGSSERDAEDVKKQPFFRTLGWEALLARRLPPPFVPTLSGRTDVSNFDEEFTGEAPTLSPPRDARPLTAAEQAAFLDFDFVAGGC

MINK1 = MINK1 (Homo sapiens, UniProt Q8N4C8)
MAP4K4 = MAP4K4 (Homo sapiens, UniProt O95819)
HIPK2 = HIPK2 (Homo sapiens, UniProt Q9H2X6)
EPHB6 = EPHB6 (Homo sapiens, UniProt O15197)
BRSK2 = BRSK2 (Homo sapiens, UniProt Q8IWQ3)
LYN = LYN (Homo sapiens, UniProt P07948)
BTK = BTK (Homo sapiens, UniProt Q06187)
BTK, sequence (Q06187 whole entry): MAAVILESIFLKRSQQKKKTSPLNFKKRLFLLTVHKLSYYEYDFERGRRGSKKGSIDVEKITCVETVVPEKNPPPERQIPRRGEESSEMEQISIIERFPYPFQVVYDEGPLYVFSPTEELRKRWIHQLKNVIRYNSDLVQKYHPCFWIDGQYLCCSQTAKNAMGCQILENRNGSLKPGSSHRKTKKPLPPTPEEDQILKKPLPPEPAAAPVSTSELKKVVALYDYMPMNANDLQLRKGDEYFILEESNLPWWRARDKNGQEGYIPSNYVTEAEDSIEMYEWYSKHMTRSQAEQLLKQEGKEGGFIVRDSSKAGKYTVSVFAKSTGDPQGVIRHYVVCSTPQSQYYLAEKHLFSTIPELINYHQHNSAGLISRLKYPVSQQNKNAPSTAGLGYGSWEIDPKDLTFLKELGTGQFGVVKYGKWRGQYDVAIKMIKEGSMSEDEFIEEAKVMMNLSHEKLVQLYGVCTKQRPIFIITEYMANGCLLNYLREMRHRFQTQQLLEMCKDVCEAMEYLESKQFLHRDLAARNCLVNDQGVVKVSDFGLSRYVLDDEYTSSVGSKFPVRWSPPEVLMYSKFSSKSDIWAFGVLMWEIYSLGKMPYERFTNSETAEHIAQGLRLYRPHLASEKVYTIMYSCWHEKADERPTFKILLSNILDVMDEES

PIM3 = PIM3 (Homo sapiens, UniProt Q86V86)
DDR1 = DDR1 (Homo sapiens, UniProt Q08345)
DDR1, sequence (Q08345 whole entry): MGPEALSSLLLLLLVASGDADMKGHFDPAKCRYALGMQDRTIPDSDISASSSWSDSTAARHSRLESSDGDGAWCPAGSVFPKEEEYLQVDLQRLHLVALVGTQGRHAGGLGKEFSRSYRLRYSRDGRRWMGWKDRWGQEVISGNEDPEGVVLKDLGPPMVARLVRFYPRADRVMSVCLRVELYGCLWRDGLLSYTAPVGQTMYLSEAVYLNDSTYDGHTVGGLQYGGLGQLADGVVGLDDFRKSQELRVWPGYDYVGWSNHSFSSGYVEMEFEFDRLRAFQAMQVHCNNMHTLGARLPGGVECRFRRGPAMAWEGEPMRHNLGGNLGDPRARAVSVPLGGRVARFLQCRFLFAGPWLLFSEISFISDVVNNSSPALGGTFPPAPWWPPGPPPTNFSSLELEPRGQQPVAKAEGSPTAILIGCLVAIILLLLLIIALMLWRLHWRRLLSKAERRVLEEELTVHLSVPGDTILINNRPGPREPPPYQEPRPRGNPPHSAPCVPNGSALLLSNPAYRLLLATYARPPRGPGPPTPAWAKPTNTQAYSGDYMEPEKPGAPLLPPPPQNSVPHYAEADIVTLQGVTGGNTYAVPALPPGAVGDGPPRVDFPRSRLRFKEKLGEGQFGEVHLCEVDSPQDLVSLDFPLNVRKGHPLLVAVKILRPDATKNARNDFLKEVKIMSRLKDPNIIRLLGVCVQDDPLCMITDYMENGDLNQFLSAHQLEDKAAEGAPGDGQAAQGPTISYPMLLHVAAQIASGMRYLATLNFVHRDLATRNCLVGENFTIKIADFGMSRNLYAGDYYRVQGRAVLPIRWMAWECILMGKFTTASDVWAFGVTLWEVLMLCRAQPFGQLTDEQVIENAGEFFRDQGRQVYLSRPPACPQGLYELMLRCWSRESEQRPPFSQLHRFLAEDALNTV

TNK1 = TNK1 (Homo sapiens, UniProt Q13470)
TNK1, sequence (Q13470 whole entry): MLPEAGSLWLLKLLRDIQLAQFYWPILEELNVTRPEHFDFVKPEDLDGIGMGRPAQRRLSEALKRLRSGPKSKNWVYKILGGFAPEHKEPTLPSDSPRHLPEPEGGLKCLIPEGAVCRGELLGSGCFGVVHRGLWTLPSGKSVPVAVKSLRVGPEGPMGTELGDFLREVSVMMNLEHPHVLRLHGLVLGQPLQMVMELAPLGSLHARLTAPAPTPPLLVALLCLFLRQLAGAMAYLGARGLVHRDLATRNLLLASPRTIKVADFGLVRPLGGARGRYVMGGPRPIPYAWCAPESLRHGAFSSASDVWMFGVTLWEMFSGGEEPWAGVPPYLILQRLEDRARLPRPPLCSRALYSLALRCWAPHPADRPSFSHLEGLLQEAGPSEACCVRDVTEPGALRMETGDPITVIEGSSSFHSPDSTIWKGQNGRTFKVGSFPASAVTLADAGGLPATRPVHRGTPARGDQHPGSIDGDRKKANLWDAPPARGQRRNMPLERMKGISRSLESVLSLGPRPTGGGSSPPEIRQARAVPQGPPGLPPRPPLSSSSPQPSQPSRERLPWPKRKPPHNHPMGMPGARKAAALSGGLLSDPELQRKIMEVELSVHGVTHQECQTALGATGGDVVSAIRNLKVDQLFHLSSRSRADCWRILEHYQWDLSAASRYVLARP

Structure (SMILES): COc1nc(N[C@H]2CC[C@H](NS(=O)(=O)CC(C)C)CC2)nc2[nH]nc(N3CCOC[C@H]3C)c12 [compound 39, N-(trans-4-((4-Methoxy-3-((R)-3-methylmorpholino)-1H-pyrazolo[3,4-d]pyrimidin-6-yl)amino)cyclohexyl)-2-methylpropane-1-sulfonamide]
- IC50 (NEK7): ≥ 20 µM
- IC50 (JAK3): ≥ 20 µM
- IC50 (BUB1): ≥ 20 µM
- IC50 (TEK): ≥ 20 µM
- IC50 (SNRK): ≥ 20 µM
- IC50 (PKN2): ≥ 20 µM
- IC50 (FER): ≥ 20 µM
- IC50 (SLK): ≥ 20 µM
- IC50 (CHEK2): ≥ 20 µM
- IC50 (TBK1): ≥ 20 µM
- IC50 (PKN1): ≥ 20 µM
- IC50 (MINK1): ≥ 20 µM
- IC50 (MAP4K4): ≥ 20 µM
- IC50 (HIPK2): ≥ 20 µM
- IC50 (EPHB6): 3.3 µM
- IC50 (BRSK2): ≥ 20 µM
- IC50 (LYN): ≥ 20 µM
- IC50 (BTK): ≥ 20 µM
- IC50 (PIM3): ≥ 20 µM
- IC50 (DDR1): ≥ 20 µM
- IC50 (TNK1): ≥ 20 µM
